Measurements published in ChEMBL document CHEMBL1139615, “Structure-based design and synthesis of pyrazinones containing novel P1 'side pocket' moieties as inhibitors of TF/VIIa” (Bioorg Med Chem Lett, 2005).

What was measured:
[1] = Inhibitory concentration against Trypsin
[2] = Inhibitory concentration against Factor IIa
[3] = target: T1, Coagulation factor VII (Homo sapiens, UniProt P08709); test: Inhibitory concentration against Coagulation factor VIIa
T1 sequence (P08709 whole entry): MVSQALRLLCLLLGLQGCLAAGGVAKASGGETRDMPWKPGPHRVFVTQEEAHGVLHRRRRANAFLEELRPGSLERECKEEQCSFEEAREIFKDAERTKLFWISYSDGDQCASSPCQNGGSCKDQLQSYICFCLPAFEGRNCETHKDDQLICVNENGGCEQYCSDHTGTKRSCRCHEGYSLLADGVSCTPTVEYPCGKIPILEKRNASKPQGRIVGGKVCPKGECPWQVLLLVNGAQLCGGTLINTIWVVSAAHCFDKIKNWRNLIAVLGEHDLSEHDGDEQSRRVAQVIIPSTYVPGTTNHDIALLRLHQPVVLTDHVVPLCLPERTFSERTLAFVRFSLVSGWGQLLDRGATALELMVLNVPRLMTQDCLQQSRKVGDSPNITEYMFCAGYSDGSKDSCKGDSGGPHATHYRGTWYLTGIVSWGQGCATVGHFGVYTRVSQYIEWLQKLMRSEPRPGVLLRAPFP

[4] = Inhibitory concentration against Coagulation factor Xa

| SMILES | IC50 [1] | IC50 [2] | IC50 [3] | IC50 [4] |
| --- | --- | --- | --- | --- |
| CC[C@@H](C)NC(=O)c1cc(N)cc(-c2cnc(NC(C)C)c(=O)n2CC(=O)NCc2ccc(C(=N)N)cc2C(N)=O)c1 | 20 nM | 13.7 µM | 6.2 nM | > 30 µM |
| CC[C@@H](C)NC(=O)c1cc(N)cc(-c2cnc(NC(C)C)c(=O)n2CC(=O)NCc2ccc(C(=N)N)cc2C(=O)NCC(=O)OC)c1 | 31 nM | 26.7 µM | 23 nM | > 30 µM |
| CC[C@@H](C)NC(=O)c1cc(N)cc(-c2cnc(NC(C)C)c(=O)n2CC(=O)NCc2ccc(C(=N)N)cc2C(=O)NCCN2CCOCC2)c1 | 21 nM | 16.7 µM | 20 nM | > 30 µM |
| CC[C@@H](C)NC(=O)c1cc(N)cc(-c2cnc(NC(C)C)c(=O)n2CC(=O)NCc2ccc(C(=N)N)cc2C(=O)NCC(F)(F)F)c1 | 15 nM | 22.6 µM | 12 nM | > 30 µM |
| CC[C@@H](C)NC(=O)c1cc(N)cc(-c2cnc(NC(C)C)c(=O)n2CC(=O)NCc2ccc(C(=N)N)cc2C(=O)Nc2ccncc2)c1 | 28 nM | > 30 µM | – | > 30 µM |
| CC[C@@H](C)NC(=O)c1cc(N)cc(-c2cnc(NC(C)C)c(=O)n2CC(=O)NCc2ccc(C(=N)N)cc2C(=O)O)c1 | 50 nM | > 30 µM | 152 nM | > 30 µM |
| CC[C@@H](C)NC(=O)c1cc(N)cc(-c2cnc(NC(C)C)c(=O)n2CC(=O)NCc2ccc(C(=N)N)cc2)c1 | 15 nM | 6.1 µM | 1.7 nM | > 30 µM |
| CC[C@@H](C)NC(=O)c1cc(N)cc(-c2cnc(NC(C)C)c(=O)n2CC(=O)NCc2ccc(C(=N)N)cc2C(=O)NCC(=O)O)c1 | 16 nM | > 30 µM | 21 nM | > 30 µM |
